# Values of other authors in article PMC12785453, “Oral Fluid Concentrations and Pharmacological Effects of Clephedrone and Methylone in Humans” (International Journal of Molecular Sciences, 2025).
# Where “and” joins values, the source holds several entries; their conditions need not be identical. Equal entries are not always repeated.
# How the values were obtained:
# [1] = cited from earlier work
# humans = settings: mephedrone, previous studies; cited from earlier work
compound,measurement,setting,value
"CNC(C)C(=O)c1ccc(C)cc1 (stereo not shown) [mephedrone, 4-methylmethcathinone]",Tmax in oral fluid,[1],2 h
same,Tmax in plasma,[1],1.25 h
same,Effects returned to baseline after,humans,2 to 3 h
same,Time of peak effects,humans,0.75 h and 0.75 to 1 h
